Reference: ChEMBL document CHEMBL1165871, “Synthesis of some 5-phenylisoxazole-3-carboxylic acid derivatives as potent xanthine oxidase inhibitors” (Eur J Med Chem, 2010)

What follows are compounds tested against T1, Xanthine dehydrogenase/oxidase (Bos taurus, UniProt P80457) (assay: Inhibition of bovine xanthine oxidase by spectrophotometry). Conditions: not given.
T1 sequence (P80457 whole entry): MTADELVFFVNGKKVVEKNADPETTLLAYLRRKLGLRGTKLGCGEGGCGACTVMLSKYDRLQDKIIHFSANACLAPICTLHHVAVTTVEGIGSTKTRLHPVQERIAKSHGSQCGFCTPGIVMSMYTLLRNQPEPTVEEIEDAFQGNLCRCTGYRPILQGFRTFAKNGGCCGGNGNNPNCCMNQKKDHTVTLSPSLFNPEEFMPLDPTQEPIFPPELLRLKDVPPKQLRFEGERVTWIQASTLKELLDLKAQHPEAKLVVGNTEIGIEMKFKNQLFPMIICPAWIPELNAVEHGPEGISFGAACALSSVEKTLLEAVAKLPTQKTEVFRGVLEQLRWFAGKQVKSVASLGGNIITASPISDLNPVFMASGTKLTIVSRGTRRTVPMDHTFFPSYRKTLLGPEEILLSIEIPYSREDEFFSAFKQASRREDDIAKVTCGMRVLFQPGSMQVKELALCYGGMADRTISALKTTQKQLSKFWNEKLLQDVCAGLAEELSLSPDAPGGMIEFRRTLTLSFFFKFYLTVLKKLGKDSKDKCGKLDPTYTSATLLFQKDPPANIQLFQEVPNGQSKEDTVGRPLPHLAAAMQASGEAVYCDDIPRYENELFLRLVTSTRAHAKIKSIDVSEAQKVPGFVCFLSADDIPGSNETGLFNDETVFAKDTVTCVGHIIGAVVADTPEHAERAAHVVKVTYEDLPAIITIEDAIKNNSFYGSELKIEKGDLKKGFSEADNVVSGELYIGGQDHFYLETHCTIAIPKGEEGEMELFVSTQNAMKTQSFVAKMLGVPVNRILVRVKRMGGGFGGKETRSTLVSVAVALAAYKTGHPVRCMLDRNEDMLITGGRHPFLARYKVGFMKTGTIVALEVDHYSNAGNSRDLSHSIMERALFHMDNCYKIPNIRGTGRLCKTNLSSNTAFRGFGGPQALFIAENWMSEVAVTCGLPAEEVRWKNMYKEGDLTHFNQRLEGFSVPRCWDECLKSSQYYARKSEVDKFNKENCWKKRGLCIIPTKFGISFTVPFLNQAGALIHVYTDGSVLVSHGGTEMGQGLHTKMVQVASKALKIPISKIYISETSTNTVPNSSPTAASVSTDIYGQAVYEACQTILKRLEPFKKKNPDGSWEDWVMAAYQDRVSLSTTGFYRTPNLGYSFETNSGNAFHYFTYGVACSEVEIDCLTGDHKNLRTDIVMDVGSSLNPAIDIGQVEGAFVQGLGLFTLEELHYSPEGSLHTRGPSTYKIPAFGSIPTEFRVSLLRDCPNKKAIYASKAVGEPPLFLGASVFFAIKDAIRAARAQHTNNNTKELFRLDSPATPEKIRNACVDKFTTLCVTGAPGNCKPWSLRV

Row | IC50 | SMILES
1 | 590 nM | N#Cc1cc(-c2cc(C(=O)O)no2)ccc1OCc1ccccc1
2 | 970 nM | O=C(O)c1cc(-c2ccc(OCc3ccccc3)c([N+](=O)[O-])c2)on1

The remaining lines, values behind:

Row | SMILES | IC50
3 | CC(C)(C)c1ccc(COc2ccc(-c3cc(C(=O)O)[n-][o+]3)cc2[N+](=O)[O-])cc1 | 12800 nM
4 | CC(C)COc1ccc(-c2cc(C(=O)O)no2)cc1[N+](=O)[O-] | 1000 nM
5 | N#Cc1cc(-c2cc(C(=O)O)no2)ccc1OCc1ccc(Cl)cc1 | 630 nM
6 | CC(C)(C)c1ccc(COc2ccc(-c3cc(C(=O)O)no3)cc2C#N)cc1 | 1010 nM
7 | O=C(O)c1cc(-c2ccc(OCc3ccc(Cl)cc3)c([N+](=O)[O-])c2)on1 | 2830 nM

The compounds below were run against T1, Xanthine dehydrogenase/oxidase (assay: Inhibition of bovine xanthine oxidase at 10 ug/ml by spectrophotometry). Conditions: cattle.

Row | inhibition at 10 µg/mL | SMILES
8 | < 50% | Cc1ccc(COc2ccc(-c3cc(C(=O)O)no3)cc2[N+](=O)[O-])cc1
9 | < 50% | Cc1ccc(COc2ccc(-c3cc(C(=O)O)no3)cc2C#N)cc1
